The values that follow are results of earlier work, collected in patent US20200308169A1, “HETEROCYCLIC COMPOUNDS AS ANTIBACTERIALS” (JANSSEN SCIENCES IRELAND UNLIMITED COMPANY, priority 2016, published 2020).

Converted amounts (≈) assume the structure as drawn.

One data set has as its system M. tuberculosis H37Rv. As to conditions: strain H37Rv, inside macrophages.
Data set [1] concerns replicating and non-replicating bacteria. The settings on record: both replicating and non-replicating bacteria.

Take `CCc1nc2ccc(Cl)cn2c1C(=O)NCc1ccc(N2CCC(c3ccc(OC(F)(F)F)cc3)CC2)cc1` [Q203]: in the data set with M. tuberculosis H37Rv, the MIC50 is listed as 0.28 nM (≈ 0.156 ng/mL). For the same compound, in data set [1], the “activity against replicating and non-replicating bacteria” value is listed as “highly active”.
